Reference: the supplement of paper PMC6045584
± gives the standard deviation of the averaged measurements.

Key:
[1] = compound: CC1(C)CC(=O)c2c(C(F)(F)F)nn(-c3ccc(C(N)=O)c(N[C@H]4CC[C@H](OC(=O)CN)CC4)c3)c2C1 [SNX-5422]; experiment: surviving fraction relative to DMSO-only wells; higher = less growth inhibition; conditions: exposure time: 5 days
Outline: (§1)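 In 384-well plates, 250–500 log-phase tumour cells per well were given 24 hours before five days of continuous exposure to inhibitors at 0.5, 1, 5, 10, 50, 100, 500 and 1000 nM. Surviving fraction is luminescence from CellTiter-Glo, normalised to the median of wells containing DMSO alone. Reading took place after 10 minutes at room temperature.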

[2] = compound: CCCCCCCCCCCCCCCC(=O)Nc1ccn([C@@H]2O[C@H](CO)[C@@H](O)[C@@H]2C#N)c(=O)n1 [SAPACITABINE]; experiment: as above; conditions: exposure time: 5 days
Outline: as §1

| Test System | surviving fraction ([1]; 0.5 nM) | surviving fraction ([1]; 1 nM) | surviving fraction ([1]; 5 nM) | surviving fraction ([1]; 10 nM) | surviving fraction ([1]; 50 nM) | surviving fraction ([1]; 100 nM) | surviving fraction ([1]; 500 nM) | surviving fraction ([1]; 1000 nM) | surviving fraction ([2]; 0.5 nM) | surviving fraction ([2]; 1 nM) | surviving fraction ([2]; 5 nM) | surviving fraction ([2]; 10 nM) | surviving fraction ([2]; 50 nM) | surviving fraction ([2]; 100 nM) | surviving fraction ([2]; 500 nM) | surviving fraction ([2]; 1000 nM) |
| --- | --- | --- | --- | --- | --- | --- | --- | --- | --- | --- | --- | --- | --- | --- | --- | --- |
| MG63 BONE | 1.04 ± 0.035 | 1.03 ± 0.047 | 1.09 ± 0.037 | 1.11 ± 0.053 | 0.496 ± 0.026 | 0.351 ± 0.029 | 0.13 ± 0.0085 | 0.136 ± 0.013 | 0.903 ± 0.027 | 0.898 ± 0.027 | 0.943 ± 0.021 | 0.9 ± 0.031 | 0.601 ± 0.014 | 0.357 ± 0.013 | 0.123 ± 0.019 | 0.217 ± 0.013 |
| JIMT1 BREAST | 0.994 ± 0.017 | 0.973 ± 0.032 | 1.01 ± 0.026 | 1.01 ± 0.015 | 0.792 ± 0.0081 | 0.271 ± 0.029 | 0.0693 ± 0.0067 | 0.0723 ± 0.0026 | 0.862 ± 0.018 | 0.8617 ± 0.0045 | 0.899 ± 0.032 | 0.87 ± 0.025 | 0.966 ± 0.046 | 0.859 ± 0.04 | 0.632 ± 0.015 | 0.558 ± 0.032 |
| BT549 BREAST | 1.1 ± 0.22 | 0.861 ± 0.11 | 1.19 ± 0.077 | 1.05 ± 0.11 | 0.216 ± 0.02 | 0.187 ± 0.059 | 0.0503 ± 0.011 | 0.0473 ± 0.0074 | 0.831 ± 0.065 | 0.869 ± 0.068 | 0.809 ± 0.027 | 0.695 ± 0.026 | 0.508 ± 0.022 | 0.367 ± 0.029 | 0.16 ± 0.044 | 0.125 ± 0.034 |
| HMLE3 BREAST | 0.975 ± 0.02 | 1 ± 0.054 | 0.999 ± 0.074 | 1.09 ± 0.032 | 0.0933 ± 0.011 | 0.0567 ± 0.0045 | 0.0233 ± 0.0015 | 0.027 ± 0.001 | 0.846 ± 0.045 | 0.738 ± 0.037 | 0.898 ± 0.017 | 0.244 ± 0.014 | 0.892 ± 0.095 | 0.67 ± 0.11 | 0.344 ± 0.039 | 0.175 ± 0.0071 |
| SG43 HEADNECK | 0.971 ± 0.16 | 1.26 ± 0.33 | 0.911 ± 0.033 | 0.865 ± 0.13 | 0.205 ± 0.085 | 0.033 ± 0.004 | 0.0307 ± 0.019 | 0.037 ± 0.003 | 1.04 ± 0.091 | 1.28 ± 0.23 | 1.08 ± 0.17 | 1.11 ± 0.29 | 0.867 ± 0.14 | 1.04 ± 0.072 | 0.933 ± 0.13 | 1.05 ± 0.04 |
| HELA CERVIX | 1.08 ± 0.049 | 1.1 ± 0.031 | 1.09 ± 0.071 | 1.03 ± 0.028 | 1.2 ± 0.016 | 0.672 ± 0.081 | 0.228 ± 0.028 | 0.113 ± 0.016 | 0.847 ± 0.031 | 0.843 ± 0.033 | 0.837 ± 0.027 | 0.819 ± 0.018 | 0.954 ± 0.064 | 1.02 ± 0.013 | 0.826 ± 0.066 | 0.794 ± 0.035 |
| SG27 HEADNECK | 1.04 ± 0.13 | 1.06 ± 0.13 | 1 ± 0.14 | 1.06 ± 0.079 | 1.68 ± 0.3 | 1.26 ± 0.088 | 0.071 ± 0.017 | 0.0733 ± 0.046 | 1.05 ± 0.027 | 1.01 ± 0.041 | 1 ± 0.16 | 0.731 ± 0.054 | 0.97 ± 0.021 | 0.975 ± 0.075 | 0.999 ± 0.025 | 0.885 ± 0.022 |
| CAL72 BONE | 1.033 ± 0.0045 | 1.06 ± 0.022 | 1.077 ± 0.01 | 1.08 ± 0.046 | 0.208 ± 0.027 | 0.294 ± 0.038 | 0.0867 ± 0.014 | 0.0977 ± 0.0057 | 0.986 ± 0.07 | 0.951 ± 0.041 | 0.91 ± 0.058 | 0.798 ± 0.13 | 0.559 ± 0.049 | 0.369 ± 0.12 | 0.181 ± 0.039 | 0.128 ± 0.027 |
| SG31 HEADNECK | 1.03 ± 0.12 | 1.09 ± 0.22 | 1.05 ± 0.096 | 0.876 ± 0.14 | 0.61 ± 0.024 | 0.187 ± 0.029 | 0.0373 ± 0.0076 | 0.0403 ± 0.006 | 0.933 ± 0.053 | 0.946 ± 0.043 | 0.814 ± 0.079 | 0.464 ± 0.015 | 0.919 ± 0.071 | 0.947 ± 0.16 | 0.792 ± 0.072 | 0.642 ± 0.033 |
| MDAMB157 BREAST | 0.999 ± 0.11 | 0.958 ± 0.067 | 0.941 ± 0.059 | 1.11 ± 0.043 | 0.575 ± 0.12 | 0.266 ± 0.06 | 0.258 ± 0.043 | 0.191 ± 0.01 | 0.911 ± 0.034 | 0.859 ± 0.058 | 0.806 ± 0.077 | 0.755 ± 0.025 | 0.632 ± 0.069 | 0.619 ± 0.02 | 0.446 ± 0.02 | 0.306 ± 0.036 |
| ZR751 BREAST | 1.04 ± 0.12 | 1.45 ± 0.57 | 1.08 ± 0.11 | 1.34 ± 0.18 | 0.652 ± 0.071 | 0.513 ± 0.036 | 0.218 ± 0.024 | 0.217 ± 0.017 | 1.02 ± 0.049 | 1 ± 0.21 | 1.01 ± 0.14 | 0.888 ± 0.13 | 1.01 ± 0.073 | 0.788 ± 0.011 | 0.627 ± 0.06 | 0.472 ± 0.039 |
| CHLA90 AUTONOMIC GANGLIA | 0.995 ± 0.028 | 1.07 ± 0.075 | 1.04 ± 0.041 | 1.026 ± 0.0046 | 0.251 ± 0.028 | 0.227 ± 0.029 | 0.129 ± 0.0096 | 0.141 ± 0.0081 | 0.843 ± 0.099 | 0.692 ± 0.038 | 0.797 ± 0.052 | 0.235 ± 0.019 | 0.889 ± 0.092 | 0.755 ± 0.057 | 0.641 ± 0.042 | 0.212 ± 0.038 |
| OS25HAL BONE | 0.9827 ± 0.0029 | 1.004 ± 0.0087 | 1.03 ± 0.019 | 0.998 ± 0.036 | 0.789 ± 0.12 | 0.257 ± 0.031 | 0.13 ± 0.018 | 0.132 ± 0.023 | 0.868 ± 0.022 | 0.8983 ± 0.0076 | 0.834 ± 0.0066 | 0.855 ± 0.059 | 0.974 ± 0.036 | 0.925 ± 0.015 | 0.293 ± 0.019 | 0.15 ± 0.014 |
| COLO320DM LARGE INTESTINE | 1.11 ± 0.05 | 1.25 ± 0.046 | 1.24 ± 0.27 | 1.13 ± 0.12 | 0.581 ± 0.029 | 0.309 ± 0.035 | 0.113 ± 0.0058 | 0.103 ± 0.009 | 1.01 ± 0.054 | 0.88 ± 0.044 | 1.08 ± 0.043 | 0.386 ± 0.015 | 0.887 ± 0.057 | 0.689 ± 0.0072 | 0.597 ± 0.024 | 0.185 ± 0.0083 |
| OSHN BONE | 1.1 ± 0.024 | 1.11 ± 0.036 | 1.11 ± 0.012 | 1.1 ± 0.018 | 0.842 ± 0.067 | 0.162 ± 0.0064 | 0.138 ± 0.0047 | 0.136 ± 0.0076 | 0.902 ± 0.034 | 0.917 ± 0.024 | 0.92 ± 0.013 | 0.891 ± 0.014 | 0.998 ± 0.02 | 0.928 ± 0.011 | 0.345 ± 0.032 | 0.158 ± 0.011 |
| SIHA CERVIX | 1.11 ± 0.1 | 1.1 ± 0.096 | 1.21 ± 0.055 | 1.23 ± 0.095 | 0.423 ± 0.034 | 0.262 ± 0.002 | 0.2 ± 0.0087 | 0.188 ± 0.0084 | 0.907 ± 0.068 | 0.863 ± 0.03 | 0.895 ± 0.044 | 0.91 ± 0.021 | 1.02 ± 0.026 | 0.972 ± 0.11 | 0.739 ± 0.046 | 0.641 ± 0.035 |
| HCC1954 BREAST | 0.8303 ± 0.0039 | 0.93 ± 0.028 | 0.873 ± 0.042 | 0.762 ± 0.06 | 0.151 ± 0.0095 | 0.109 ± 0.0067 | 0.0587 ± 0.0011 | 0.062 ± 0.0021 | 0.436 ± 0.047 | 0.437 ± 0.016 | 0.445 ± 0.058 | 0.559 ± 0.1 | 0.464 ± 0.037 | 0.371 ± 0.014 | 0.425 ± 0.0067 | 0.343 ± 0.035 |
| CAL51 BREAST | 0.902 ± 0.075 | 0.973 ± 0.016 | 1.02 ± 0.036 | 1 ± 0.034 | 0.261 ± 0.036 | 0.077 ± 0.0036 | 0.0237 ± 0.00058 | 0.0263 ± 0.0015 | 0.878 ± 0.1 | 0.838 ± 0.14 | 0.977 ± 0.074 | 0.929 ± 0.1 | 0.789 ± 0.0083 | 0.533 ± 0.13 | 0.112 ± 0.022 | 0.0657 ± 0.014 |
| HT1080 SOFT TISSUE | 1.02 ± 0.016 | 1.03 ± 0.0021 | 1.062 ± 0.0015 | 1.155 ± 0.01 | 0.414 ± 0.034 | 0.238 ± 0.011 | 0.121 ± 0.007 | 0.12 ± 0.01 | 1 ± 0.028 | 1.01 ± 0.029 | 1.02 ± 0.053 | 0.935 ± 0.053 | 0.591 ± 0.025 | 0.434 ± 0.012 | 0.314 ± 0.012 | 0.271 ± 0.0047 |
| MDAMB468 BREAST | 1.038 ± 0.0097 | 1.05 ± 0.097 | 1.1 ± 0.043 | 1.033 ± 0.009 | 0.138 ± 0.013 | 0.164 ± 0.021 | 0.221 ± 0.026 | 0.207 ± 0.031 | 0.811 ± 0.012 | 0.862 ± 0.087 | 0.88 ± 0.069 | 0.847 ± 0.086 | 0.792 ± 0.03 | 0.56 ± 0.07 | 0.204 ± 0.018 | 0.193 ± 0.028 |
